Laboratory results: patent US9012152B2, “Anti-bacterial peptides and methods of treating diseases using same” (Yissum Research Development Company of the Hebrew …, priority 2007, dated 2015)

Experiments:
Effect of pH on EDF = type: physicochemical; conditions: supernatant incubated at pH 3, 5, 7, 9 or 11 for 2 hours; extreme pH; readout: restoring mazEF-mediated cell death
Procedure: Effect of pH on EDF: Supernatants from the “donor” cultures described above were incubated at pH 3, 5, 7, 9 or 11 for 2 hours and titrated to PH 7. Their ability to restore mazEF-mediated cell death to a diluted culture was determined as described above.

[1] = Effect of temperature on EDF; type: physicochemical; conditions: supernatant incubated 10 minutes; high temperature (80° C. to 100° C.)
Procedure: Effect of temperature on EDF: Supernatants from the “donor” cultures described above were incubated at 37° C., 60° C., 80° C., or 100° C. for 10 minutes and cooled to 37° C. Their ability to restore mazEF-mediated cell death to a diluted culture was determined as described above.

proteinase K = proteinase K (Parengyodontium album, UniProt P06873); test: Effect of proteinase K on EDF; conditions: supernatant with proteinase K-agarose beads, 37° C., 2 hours
Procedure: Effect of proteinase K on EDF: Supernatants from the “donor” cultures described above were incubated with shaking at 37° C. for 2 hours as such or with agarose bease or with proteinase K-agarose beads. The beads were then removed by centrifugation at 14,000 rpm for 10 minutes. Their ability to restore mazEF-mediated cell death to a diluted culture was determined as described above.

[2] = tested on: E. coli MC4100relA^+wt(WT) and MC4100relA^+ΔmazEF; test: Killing of E. coli cells by chemically synthesized EDF in combination with other antibiotic; type: cell-based; conditions: diluted culture
Procedure: Killing of E. coli cells by chemically synthesized EDF in combination with other antibiotic: E. coli MC4100relA^+wt(WT) and MC4100relA^+ΔmazEF (ΔmazEF) were grown for 12 hours in M9 medium with shaking (160 rpm). Then, cells were diluted 1:100 in M9 medium and were grown with shaking (160 rpm) at 37° C. to a mid-logarithmic phase (OD600=0.6). Duplicate samples were removed from the cultures at a density of 2.5×10^8 (Dense), diluted in pre-heated M9 medium to the density of 3×10^4 (M9) or diluted in pre-heated M9 applied with different concentrations of EDF. The samples were incubated for 10 minutes at 37° C. without shaking Then rifampicin (10 μg/ml) was added and the cells were incubated for 10 minutes without shaking. The cells were centrifuged in 14000 rpm for 5 minutes and washed in pre-heated saline. Then, the cells were diluted, plated on LB plates and incubated at 37° C. for 12 hours. Cell killing was calculated by comparing the number of the colony-forming ability of cells treated by stressful conditions to those of the cells that were not exposed to the treatment.

[3] = tested on: E. coli MC4100relA^+wt (WT) and MC4100relA^+ΔmazEF; test: Killing of E. coli cells by chemically synthesized EDF itself; type: cell-based; conditions: chemically synthesized EDF by itself (without antibiotic), 3 hours
Procedure: Killing of E. coli cells by chemically synthesized EDF itself: E. coli MC4100relA^+wt (WT) and MC4100relA^+ΔmazEF (ΔmazEF) were grown for 12 hours in M9 medium with shaking (160 rpm). Then, cells were diluted 1:100 in M9 medium and were grown with shaking (160 rpm) at 37° C. to a mid-logarithmic phase (OD600=0.6). Samples were removed from the cultures at a density of 2.5×10^8 (Dense), centrifuged in 14000 rpm for 5 minutes and washed in pre-heated M9. The samples were applied with different concentrations of EDF, incubated for 3 hours at 37° C. without shaking. Then, cells were centrifuged in 14000 rpm for 5 minutes and washed in pre-heated saline. Then, the cells were diluted, plated on LB plates and incubated at 37° C. for 12 hours. Cell killing was calculated by comparing the number of the colony-forming ability of cells treated by stressful conditions to those of the cells that were not exposed to the treatment.

MC4100relA^+ = test: EDF response of recipient culture, strain MC4100relA^+; type: cell-based, E. coli; conditions: rifampicin 10 μg/ml
Procedure: (§1) Comparison of EDF response in MC4100relA^+, K38, W3110, and MG1655 E. coli strains: Cultures of MC4100relA^+, K38, W3110, and MG1655 E. coli were grown as described in Example 1. When the cultures reached a density of 2.5×10^8 cells/ml, duplicate samples were removed and diluted to 3×10^4 cells/ml in pre-heated supernatant of a dense culture of MC4100relA^+(WT) which had been titrated to have an EDF concentration of either 1 unit/ml or 10 units/ml (quantified as described in Example 3). After incubation without shaking at 37° C. for 10 minutes, rifampicin (10 μg/ml) was added, and the culture was incubated without shaking at 37° C. for an additional 10 minutes. Cells were centrifuged in 14,000 rpm for 5 minutes and washed in pre-heated saline. Then, the cells were diluted, plated on LB plates, and incubated at 37° C. for 12 hours. Cell survival was calculated by comparing the colony-forming units (CFUs) of treated cells to those of untreated cells.

K-38 = test: EDF response of recipient culture, strain K-38; type: cell-based, E. coli; conditions: rifampicin 10 μg/ml
Procedure: as §1

MG1655 = test: EDF response of recipient culture, strain MG1655; type: cell-based, E. coli; conditions: rifampicin 10 μg/ml
Procedure: as §1

W3110 = test: EDF response of recipient culture, strain W3110; type: cell-based, E. coli; conditions: rifampicin 10 μg/ml
Procedure: as §1

[4] = tested on: E. Coli MC4100relA^+ cells, K38 cells and W3110; test: Chemically synthesized EDF restores mazEF mediated cell death to a dilute culture; type: cell-based; conditions: synthetic EDF 2.5 ng/ml
Procedure: Chemically synthesized EDF restores mazEF mediated cell death to a dilute culture: E. Coli MC4100relA^+ cells, K38 cells and W3110 and ΔmazEF cells were grown as described in Example 1 herein above. At a density of 2.5×10^8 cells/ml, samples were either not diluted (dense) or diluted to 3×10^4 cells/ml in pre-warmed M9 medium (Diluted culture) or in a pre-warmed M9 applied with chemically synthesized EDF (2.5 ng/ml; diluted culture+EDF). For FIGS. 12A-C, samples were incubated with rifampicin as in FIG. 2A. For FIG. 13A, samples were incubated in trimethorpin (2 μg/ml) for 1 hour and for FIG. 13B samples were incubated in chlorapmphenicol (50 μg/ml) for 20 minutes.

E. coli MC4100relA^+ = test: E. coli mazEF-mediated cell death in the presence of synthesized wild type and mutated EDF; type: cell-based; conditions: 1 μg/ml of peptide; rifampicin 10 μg/ml, 10 minutes; diluted culture 3×10^4
Procedure: (§2) E. coli mazEF-mediated cell death in the presence of synthesized wild type (WT) and mutated EDF. E. coli MC4100relA^+t(WT) and MC4100relA^+ΔmazEF (ΔmazEF) were grown for 12 hours in M9 medium with shaking (160 rpm). Then, cells were diluted 1:100 in M9 medium and were grown with shaking (160 rpm) at 37° C. to a mid-logarithmic phase (OD600=0.6). Duplicate samples were removed from the cultures at a density of 2.5×10^8 (Dense), diluted in pre-heated M9 medium to the density of 3×10^4 (M9) or diluted in pre-heated M9 applied with 1 μg/ml of one of the synthesized EDFs (SEQ ID NOs: 1-6). The samples were incubated for 10 minutes at 37° C. without shaking. Then rifampicin (10 μg/ml) was added and the cells were incubated for 10 minutes without shaking. The cells were centrifuged in 14000 rpm for 5 minutes and washed in pre-heated saline. Then, the cells were diluted, plated on LB plates and incubated at 37° C. for 12 hours. Cell killing was calculated by comparing the number of the colony-forming ability of cells treated by stressful conditions to those of the cells that were not exposed to the treatment.

E. Coli NC4100relA^+ = test: Ability of mutant EDF molecules to inhibit wild type EDF activity; type: cell-based; conditions: constant amount (50 ng/ml) of mutated EDF, various concentrations of WT EDF
Procedure: FIG. 15 is a graph illustrating the ability of mutant EDF molecules to inhibit wild type EDF activity. The […] peptides analyzed include NNWNN (SEQ ID NO: 1); GNWNN (SEQ ID NO: 2); NGWNN (SEQ ID NO: 3); NNGNN (SEQ ID NO: 4); NNWGN (SEQ ID NO: 5); and NNWNG (SEQ ID NO: 6).
Ability of mutant EDF molecules to inhibit wild type EDF activity: Various concentration of chemically synthesized WT EDF (SEQ ID NO: 1) were added to diluted cultures of E. Coli NC4100relA^+ containing a constant amount (50 ng/ml) of each of the mutated EDF described in Table 6. The Experiment was carried out as described herein above.

E. Coli MC41relA^+ = test: EDF activity of modified derivatives (size and external Asn residues); type: cell-based; conditions: various concentrations added to diluted cultures; incubated with rifampicin
Procedure: The […] peptides analyzed include NNWNN (SEQ ID NO: 1); GNWNN (SEQ ID NO: 2); NGWNN (SEQ ID NO: 3); NNGNN (SEQ ID NO: 4); NNWGN (SEQ ID NO: 5); and NNWNG (SEQ ID NO: 6). […] Chemically synthesized EDF (SEQ ID NO: 1) or its modified derivatives were added at various concentrations to diluted cultures of E. Coli MC41relA^+. No EDF was added to a control culture. […] Samples were incubated with rifampicin as described in Example 1.
as §2, with “Duplicate samples were removed from the cultures at a density of 2.5×10^8 (Dense), diluted in pre-heated M9 medium to the density of 3×10^4 (M9) or diluted in pre-heated M9 applied with 1 μg/ml of one of the synthesized EDFs (SEQ ID NOs: 1-6).” left out

[5] = EDF 10 units/ml (titrated supernatant)
[6] = EDF 1 units/ml (titrated supernatant)

Sequence of proteinase K (P06873 106-384): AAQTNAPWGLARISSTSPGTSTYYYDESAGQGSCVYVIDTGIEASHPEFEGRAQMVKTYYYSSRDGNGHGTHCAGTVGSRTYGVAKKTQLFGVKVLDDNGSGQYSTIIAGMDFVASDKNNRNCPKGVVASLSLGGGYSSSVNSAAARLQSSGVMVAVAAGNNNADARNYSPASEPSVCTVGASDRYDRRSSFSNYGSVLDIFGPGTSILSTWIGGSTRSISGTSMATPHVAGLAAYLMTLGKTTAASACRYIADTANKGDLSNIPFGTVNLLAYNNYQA

Asn-Asn-Trp-Asn-Asn (NNWNN; Chemically synthesized WT EDF) [linear pentapeptide NNWNN, extracellular death factor of E. coli; purified from supernatant and chemically synthesized]
sensitivity of EDF to pH (Effect of pH on EDF): sensitive
sensitivity of EDF to temperature [1]: sensitive
sensitivity of EDF to proteinase K (proteinase K): sensitive
concentrations of EDF at which cell death is mazEF-independent ([2]; chemically synthesized EDF in conjunction with an antibiotic (rafamycin)): over 500 ng/ml
concentrations of EDF at which cell death is mazEF-dependent ([2]; chemically synthesized EDF in conjunction with an antibiotic): 1 to 500 ng/mL
concentrations of EDF at which cell death is mazEF-dependent [3]: 1 to 10 µg/mL
concentrations of EDF at which cell death is mazEF-independent [3]: > 10 µg/mL
% Survival of recipient culture in response to added EDF (MC4100relA^+; EDF 1 units/ml (titrated supernatant of dense MC4100relA^+ culture)): 8.0 ± 5.0%
% Survival of recipient culture in response to added EDF (MC4100relA^+; [5]): 7.0 ± 2.0%
% Survival of recipient culture in response to added EDF (K-38; [6]): 17.0 ± 4.2%
% Survival of recipient culture in response to added EDF (K-38; [5]): 12.0 ± 6.6%
% Survival of recipient culture in response to added EDF (MG1655; [6]): 77.8 ± 3.4%
% Survival of recipient culture in response to added EDF (MG1655; [5]): 19.6 ± 4.5%
% Survival of recipient culture in response to added EDF (W3110; [6]): 15.0 ± 3.6%
% Survival of recipient culture in response to added EDF (W3110; [5]): 14.0 ± 2.3%
mazEF-mediated cell death in a diluted culture ([4]; induced by chloramphenicol 50 μg/ml, 20 minutes): enhanced mazEF-mediated cell death
mazEF-mediated cell death in a diluted culture ([4]; induced by rifampicin in different E. Coli strains (MC4100relA^+, K38, W3110)): enhanced mazEF-mediated cell death
mazEF-mediated cell death in a diluted culture ([4]; induced by trimethoprim 2 μg/ml, 1 hour): enhanced mazEF-mediated cell death
% Cell killing following mazEF induction with rifampicin (E. coli MC4100relA^+): 99.5%

GNWNN: Mutated EDF pentapeptide, glycine in position 1 (Chemically synthesized mutant EDF derivative)
% Cell killing following mazEF induction with rifampicin (E. coli MC4100relA^+): 9%
inhibition of wild type EDF activity (E. Coli NC4100relA^+): capable of antagonizing

NGWNN: Mutated EDF pentapeptide, glycine in position 2 (Chemically synthesized mutant EDF derivative)
% Cell killing following mazEF induction with rifampicin (E. coli MC4100relA^+): 51%

NNGNN: Mutated EDF pentapeptide, glycine in position 3 (Chemically synthesized mutant EDF derivative)
% Cell killing following mazEF induction with rifampicin (E. coli MC4100relA^+): 41%

NNNWNNN (Chemically synthesized modified EDF derivative) [heptapeptide derivative of EDF]
EDF activity (E. Coli MC41relA^+): partial activity

NNWGN: Mutated EDF pentapeptide, glycine in position 4 (Chemically synthesized mutant EDF derivative)
% Cell killing following mazEF induction with rifampicin (E. coli MC4100relA^+): 72%

NNWNG: Mutated EDF pentapeptide, glycine in position 5 (Chemically synthesized modified EDF derivative)
% Cell killing following mazEF induction with rifampicin (E. coli MC4100relA^+): 19%
inhibition of wild type EDF activity (E. Coli NC4100relA^+): capable of antagonizing

NNWNQ: EDF pentapeptide with Asn replaced by Gln at the last position (Chemically synthesized modified EDF derivative)
EDF activity (E. Coli MC41relA^+): only a partial reduction in EDF activity

QNWNN: EDF pentapeptide with Asn replaced by Gln at the first position (Chemically synthesized modified EDF derivative)
EDF activity (E. Coli MC41relA^+): only a partial reduction in EDF activity
